Test results as given in patent US20210393811A1, “Imaging Agents and Methods of Use” (Texas Heart Institute, priority 2018, published 2021).

Tests used:
[1] = target: T1, integrin α4β1 (Homo sapiens, UniProt P05556+P13612); assay: K562(α4β1) cell adhesion to CS-1; assay type: cell-based; design: expressed in transfected cells; host or cells: K562(α4β1) cells
Excerpt: A. Structure of TBC3486. B. Structure of THI0510 (TBC3486 modified with conjugatable linker [TBC3486-conj] for functionalization with reactive dye and/or chelator reagents). C. TBC3486 and THI0510 inhibition of α4β1-K562 cell adhesion to the CS-1 sequence from fibronectin.
A. Conjugated THI375 analogue. B. THI375 analogue conjugated to the fluorescent dye sulfo-Cy5 (THI526). C. Activity of THI527, THI526, and TBC-4746 in K562-α4β1/CS-1 adhesion assays performed in Mn++.
First attempts to generate an integrin α4β1 imaging agent took advantage of the TBC3486 core scaffold. Modifications to the core scaffold were generated to determine an appropriate site to which imaging conjugates could be attached (FIG. 1). […] Next, imaging agents were attached to this conjugation site and their activities tested in cell adhesion assays.

[2] = target: T1, integrin α4β1; assay: Flow cytometry binding to K562(α4β1) cells; design: expressed in transfected cells; host or cells: K562(α4β1) cells; settings: cations Mn
[3] = target: T1, integrin α4β1; assay: K562(α4β1) cell adhesion to VCAM-1; assay type: cell-based; design: expressed in transfected cells; host or cells: K562(α4β1) cells
Description: A, B. Structure of THI520 and THI528. C. THI520 and THI0528 inhibition of α4β1-K562 cell adhesion to VCAM-1 (Mn++).
(§1) The core of this structure is different than that of TBC3486 (FIG. 3A). […] THI528 was tested for binding to integrin α4β1by flow cytometry (FIG. 4). Jurkat cells that express the integrin α4β1 (Jurkat(α4β1)), or mutagenized Jurkat cells that no longer express the integrin α4β1 (Jurkat(α4^null)), where incubated with increasing concentrations of THI528.

[4] = target: T2, murine integrin α4β1 (Mus musculus, UniProt P09055+Q00651); assay: 70Z3 cell adhesion to VCAM-1; assay type: cell-based
T2 construct: endogenous in cells; host or cells: 70Z3 cells
T2 sequence (Q00651 41-1039): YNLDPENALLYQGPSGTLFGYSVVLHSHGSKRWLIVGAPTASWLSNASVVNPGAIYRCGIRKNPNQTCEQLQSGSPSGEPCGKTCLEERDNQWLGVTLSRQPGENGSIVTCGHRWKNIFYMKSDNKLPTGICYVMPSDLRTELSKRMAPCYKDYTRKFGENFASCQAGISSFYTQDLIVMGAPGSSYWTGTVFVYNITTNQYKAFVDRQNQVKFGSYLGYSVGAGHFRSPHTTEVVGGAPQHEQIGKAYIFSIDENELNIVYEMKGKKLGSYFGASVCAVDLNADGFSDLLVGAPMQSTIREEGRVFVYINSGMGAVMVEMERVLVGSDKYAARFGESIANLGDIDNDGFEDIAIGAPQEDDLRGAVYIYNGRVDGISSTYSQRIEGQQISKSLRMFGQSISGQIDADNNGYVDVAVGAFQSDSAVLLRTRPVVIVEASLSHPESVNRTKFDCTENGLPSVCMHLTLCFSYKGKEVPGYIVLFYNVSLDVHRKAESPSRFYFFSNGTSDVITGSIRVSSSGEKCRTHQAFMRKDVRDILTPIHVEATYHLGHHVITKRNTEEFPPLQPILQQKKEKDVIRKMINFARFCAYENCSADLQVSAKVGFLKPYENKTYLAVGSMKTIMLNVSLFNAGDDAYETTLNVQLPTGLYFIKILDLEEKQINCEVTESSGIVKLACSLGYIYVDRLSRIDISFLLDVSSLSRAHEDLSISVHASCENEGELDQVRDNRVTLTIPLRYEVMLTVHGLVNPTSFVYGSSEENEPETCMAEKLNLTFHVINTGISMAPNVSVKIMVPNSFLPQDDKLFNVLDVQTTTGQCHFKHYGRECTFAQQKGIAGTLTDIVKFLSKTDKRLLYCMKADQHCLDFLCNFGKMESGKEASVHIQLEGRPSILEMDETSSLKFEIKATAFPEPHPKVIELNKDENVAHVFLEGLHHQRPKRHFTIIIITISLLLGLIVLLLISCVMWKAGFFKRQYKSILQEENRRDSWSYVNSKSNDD
T2 sequence (P09055 21-798): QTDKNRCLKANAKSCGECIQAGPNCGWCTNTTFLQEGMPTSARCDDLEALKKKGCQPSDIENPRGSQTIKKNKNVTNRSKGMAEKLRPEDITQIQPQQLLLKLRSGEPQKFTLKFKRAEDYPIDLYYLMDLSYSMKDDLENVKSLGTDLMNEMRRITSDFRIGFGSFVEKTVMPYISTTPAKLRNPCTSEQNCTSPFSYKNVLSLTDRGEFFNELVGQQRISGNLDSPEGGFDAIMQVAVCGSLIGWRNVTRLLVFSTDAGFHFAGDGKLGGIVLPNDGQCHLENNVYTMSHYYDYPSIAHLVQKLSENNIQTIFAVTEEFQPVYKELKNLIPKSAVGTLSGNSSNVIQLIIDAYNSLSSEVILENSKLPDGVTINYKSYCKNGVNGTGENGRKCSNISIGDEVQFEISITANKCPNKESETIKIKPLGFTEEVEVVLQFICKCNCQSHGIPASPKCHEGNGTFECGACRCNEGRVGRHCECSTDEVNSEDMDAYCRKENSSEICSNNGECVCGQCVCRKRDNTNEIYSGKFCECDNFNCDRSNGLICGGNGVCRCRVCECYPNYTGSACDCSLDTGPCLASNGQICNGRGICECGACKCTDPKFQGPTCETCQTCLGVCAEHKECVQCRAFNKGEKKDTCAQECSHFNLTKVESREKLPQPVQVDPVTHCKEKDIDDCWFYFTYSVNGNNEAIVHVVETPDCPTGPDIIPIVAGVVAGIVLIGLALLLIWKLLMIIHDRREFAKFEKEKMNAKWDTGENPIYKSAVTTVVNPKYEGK

[5] = target: T1, integrin α4β1; assay: Flow cytometry binding to Jurkat cells; settings: for IC50: Jurkat, Flow Cytometry, Human
Description: B. Individual histograms of 10 nM dose of THI528±EDTA.
as §1

[6] = target: T2, murine integrin α4β1; assay: Flow cytometry binding to 70Z3 cells; settings: 70Z3, Flow Cytometry, cations Mn
[7] = K562(α4β1), substrate CS-1, cations Mn, Human
[8] = K562(α4β1), substrate VCAM-1, cations Ca/Mg, Human (low affinity α4β1 adhesion assay), read-out: Activity (IC50) (converted)
[9] = 70Z3, substrate VCAM-1, cations Ca/Mg
[10] = 70Z3, substrate VCAM-1, cations Mn

T1 sequence (P13612 34-1032): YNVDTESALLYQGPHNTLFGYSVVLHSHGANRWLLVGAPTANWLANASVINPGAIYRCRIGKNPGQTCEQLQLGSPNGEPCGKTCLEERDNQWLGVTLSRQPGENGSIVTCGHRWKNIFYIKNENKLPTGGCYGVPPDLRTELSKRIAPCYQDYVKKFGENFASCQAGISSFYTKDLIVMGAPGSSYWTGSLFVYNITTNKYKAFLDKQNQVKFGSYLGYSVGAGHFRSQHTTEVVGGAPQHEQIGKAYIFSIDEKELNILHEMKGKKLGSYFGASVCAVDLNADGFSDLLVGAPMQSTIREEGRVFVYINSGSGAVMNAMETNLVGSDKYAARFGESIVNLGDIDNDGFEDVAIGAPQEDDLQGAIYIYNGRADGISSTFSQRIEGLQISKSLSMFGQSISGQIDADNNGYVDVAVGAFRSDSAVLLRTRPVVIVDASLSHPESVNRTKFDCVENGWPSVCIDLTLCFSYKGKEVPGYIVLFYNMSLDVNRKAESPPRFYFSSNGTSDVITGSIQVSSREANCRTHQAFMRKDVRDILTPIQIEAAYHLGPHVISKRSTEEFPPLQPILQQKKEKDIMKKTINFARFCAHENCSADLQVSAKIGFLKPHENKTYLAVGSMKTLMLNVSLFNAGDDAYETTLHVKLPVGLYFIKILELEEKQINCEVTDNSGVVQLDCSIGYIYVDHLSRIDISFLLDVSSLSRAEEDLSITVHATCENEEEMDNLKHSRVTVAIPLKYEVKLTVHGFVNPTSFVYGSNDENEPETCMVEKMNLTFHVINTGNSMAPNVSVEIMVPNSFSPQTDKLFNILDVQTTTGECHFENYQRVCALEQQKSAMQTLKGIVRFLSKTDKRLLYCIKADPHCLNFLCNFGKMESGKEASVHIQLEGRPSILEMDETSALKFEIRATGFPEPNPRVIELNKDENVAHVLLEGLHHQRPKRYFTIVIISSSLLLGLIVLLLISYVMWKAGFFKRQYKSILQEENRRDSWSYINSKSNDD
T1 sequence (P05556 21-798): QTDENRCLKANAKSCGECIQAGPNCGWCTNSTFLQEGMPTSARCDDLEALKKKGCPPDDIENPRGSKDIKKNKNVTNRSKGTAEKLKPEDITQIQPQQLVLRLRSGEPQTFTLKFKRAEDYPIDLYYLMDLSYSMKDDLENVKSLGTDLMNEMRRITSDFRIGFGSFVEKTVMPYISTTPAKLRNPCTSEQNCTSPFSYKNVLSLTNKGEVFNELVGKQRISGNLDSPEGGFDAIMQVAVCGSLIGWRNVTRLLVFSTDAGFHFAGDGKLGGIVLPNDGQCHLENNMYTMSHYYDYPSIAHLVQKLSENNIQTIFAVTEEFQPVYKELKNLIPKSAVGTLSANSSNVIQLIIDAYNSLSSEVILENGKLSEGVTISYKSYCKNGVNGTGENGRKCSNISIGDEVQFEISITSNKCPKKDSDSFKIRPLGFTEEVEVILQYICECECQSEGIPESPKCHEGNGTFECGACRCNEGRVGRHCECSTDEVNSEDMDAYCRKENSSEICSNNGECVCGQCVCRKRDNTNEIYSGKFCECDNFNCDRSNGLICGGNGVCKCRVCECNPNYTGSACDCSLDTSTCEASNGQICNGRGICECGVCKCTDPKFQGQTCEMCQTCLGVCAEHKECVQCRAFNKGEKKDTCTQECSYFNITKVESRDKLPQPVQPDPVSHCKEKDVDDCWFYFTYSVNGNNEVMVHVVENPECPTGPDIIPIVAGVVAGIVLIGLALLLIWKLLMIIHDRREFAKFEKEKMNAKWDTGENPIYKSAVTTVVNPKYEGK

SMILES	IC50 [1, 7]	IC50 ([5]; cations Mn)	IC50 [3, 8]	IC50 [4, 9]	IC50 [4, 10]	further results
Cc1ccc([C@H](CC(=O)O)NC(=O)Nc2c(O)c(C)cn(Cc3ccccc3Cl)c2=O)cc1 [THI375]	2.2 ± 0.53 nM	–	810 nM	10300 nM	127 nM	IC50 ([3]; K562(α4β1), substrate VCAM-1, cations Mn, Human, read-out: Activity (IC50) (converted)): 1.4 nM
CCOc1cccc([C@H](CC(=O)[O-])NC(=O)Nc2c([O-])c(C)cn(Cc3c(Cl)cccc3OCC)c2=O)c1.[Na+].[Na+] [THI520]	0.11 ± 0.04 nM	–	6.3 ± 3.1 nM	129 nM	0.75 nM	activity in high affinity assays ([1]; high affinity α4β1 adhesion assays): pM activity
C[N+]1=C(/C=C/C=C/C=C2/N(CCCCCC(=O)NCCCCCC(=O)O)c3ccc(S(=O)(=O)[O-])cc3C2(C)C)C(C)(C)c2cc(S(=O)(=O)[O-])ccc21.[Na+] [THI529]	–	–	–	–	–	Activity (IC50) ([1]; K562(α4β1), substrate CS-1, cations Mn, Human, result in words): No Activity (n = 3) K562(α4β1)

Second part, led by results:

IC50 [1, 7]	IC50 ([5]; cations Mn)	SMILES	IC50 [3, 8]	IC50 [4, 9]	IC50 [4, 10]	further results
1700 ± 1000 nM	–	C[N+]1=C(/C=C/C=C/C=C2/N(CCCCCC(=O)NCCCCCC(=O)NCCCC[C@@H](NC(=O)N[C@H](CC(=O)O)c3ccc4c(c3)OCO4)C(=O)N(Cc3cccs3)Cc3cccs3)c3ccc(S(=O)(=O)[O-])cc3C2(C)C)C(C)(C)c2cc(S(=O)(=O)O)ccc21 [THI517]	–	–	–	IC50 [2]: > 1000 nM
–	0.078 ± 0.037 nM	CCOc1cccc([C@H](CC(=O)O)NC(=O)Nc2c(OCCCCCCNC(=O)C(CNC(=O)C(CNC(=O)CCCCC[N+]3=C(/C=C/C=C/C=C4/N(C)c5ccc(S(=O)(=O)[O-])cc5C4(C)C)C(C)(C)c4cc(S(=O)(=O)O)ccc43)S(=O)(=O)O)S(=O)(=O)O)c(C)cn(Cc3c(Cl)cccc3OCC)c2=O)c1 (stereo partly shown) [THI540]	–	–	–	–
–	0.069 nM	CCOc1cccc([C@H](CC(=O)O)NC(=O)Nc2c(OCCCCCCNC(=O)CCCCC[N+]3=C(/C=C/C=C/C=C4/N(C)c5ccc(S(=O)(=O)[O-])cc5C4(C)C)C(C)(C)c4cc(S(=O)(=O)[O-])ccc43)c(C)cn(Cc3c(Cl)cccc3OCC)c2=O)c1.[Na+] [THI528]	–	–	–	antagonist activity after conjugation to sulfo-Cy5 ([3]; compared with THI520): no apparent loss in antagonist activity; IC50 ([3]; n=3, same value as Table 2 K562(α4β1)/VCAM-1/Mn, read-out: a4b1 IC50): 0.519 ± 0.097 nM; Kd ([5]; Jurkat(α4β1) cells, flow cytometry, n=1, read-out: apparent Kd): 0.26 nM; IC50 ([5]; cations Ca/Mg): 0.202 nM; binding to Jurkat cells expressing α4β1 ([5]; flow cytometry, increasing concentrations): Specific and saturable binding; binding in presence of EDTA or to Jurkat cells lacking α4β1 ([5]; flow cytometry, EDTA or Jurkat(α4β1) cells as printed): no detectable binding; IC50 [6]: 0.06 nM
